In patent publication US8178506B2, “Oligomeric compounds and compositions for use in modulation of small non-coding RNAs” (Regulus Therapeutics Inc., priority 2003, dated 2012):
In the oligonucleotide strings, read from the 5' end, every base follows the letter of its sugar. An asterisk marks phosphorothioate; unmarked linkages are phosphodiester. Other units and linkages are bracketed, terminal groups are in braces. A string of capitals states the bases alone. e = 2'-O-(2-methoxyethyl) (MOE); [5mC] = 5-methylcytosine; d = 2'-deoxy (DNA)

test system: T47D cells; test: Caspase-3 activity assay (apoptosis) in T47D cells; settings: T47D cells, 200 nM oligomeric compound, 48 hours; experiment of Table 10

Row | Substance | Fold Increase over UTC (caspase-3 activity, apoptosis) [fold]
1 | 328672 (eA*eA*eG*eG*e[5mC]*dT*dT*dT*dT*dT*dG*d[5mC]*dT*d[5mC]*dA*eA*eG*eG*eG*e[5mC]; antisense) [compound 328672] | 0.9
2 | 328700 (eA*eG*e[5mC]*e[5mC]*eA*dG*dT*dG*dT*dG*dT*dA*dA*dA*dA*eT*eG*eA*eG*eA; antisense) [compound 328700] | 0.8
3 | 328402 (antisense eT*eT*eG*eA*eA*d[5mC]*dT*d[5mC]*d[5mC]*dA*dT*dG*d[5mC]*d[5mC]*dA*e[5mC]*eA*eA*eG*eG) [compound 328402] | 1.2

same assay, conditions: T47D cells, 200 nM oligomeric compound, 48 hours; experiment of Table 11

Row | Substance | Fold Increase over UTC (caspase-3 activity, apoptosis) [fold]
4 | 328406 (antisense eA*eG*e[5mC]*eA*eA*dG*dT*d[5mC]*dT*dA*d[5mC]*dT*d[5mC]*d[5mC]*dT*e[5mC]*eA*eG*eG*eG) [compound 328406] | 1.0
5 | 328390 (eG*eG*eA*eG*e[5mC]*d[5mC]*dT*dT*dG*d[5mC]*dG*d[5mC]*dT*d[5mC]*dA*eG*e[5mC]*eA*eT*eT; antisense) [compound 328390] | 0.9
6 | 328689 (eT*eA*e[5mC]*eA*eA*dT*dT*dT*dG*dG*dG*dA*dG*dT*d[5mC]*e[5mC]*eT*eG*eA*eA; antisense) [compound 328689] | 0.8
7 | 328645 (eT*eG*e[5mC]*eT*e[5mC]*dA*dG*d[5mC]*d[5mC]*dA*dG*d[5mC]*d[5mC]*d[5mC]*d[5mC]*eA*eT*eT*e[5mC]*eT) [compound 328645] | 2.2
8 | 328654 (eT*e[5mC]*e[5mC]*eA*eG*dG*dA*dT*dG*d[5mC]*dA*dA*dA*dA*dG*e[5mC]*eA*e[5mC]*eG*eA; antisense) [compound 328654] | 1.0
9 | 328639 (eG*eA*e[5mC]*eT*eA*d[5mC]*dT*dG*dT*dT*dG*dA*dG*dA*dG*eG*eA*eA*e[5mC]*eA; antisense) [compound 328639] | 0.8
10 | 328393 (eG*e[5mC]*eT*eG*eG*d[5mC]*d[5mC]*dT*dG*dA*dT*dA*dG*d[5mC]*d[5mC]*e[5mC]*eT*eT*e[5mC]*eT; antisense) [compound 328393] | 1.5

same assay, conditions: T47D cells, 200 nM oligomeric compound, 48 hours; experiment of Table 12

Row | Substance | Fold Increase over UTC (caspase-3 activity, apoptosis) [fold]
11 | 328412 (antisense eT*eT*eT*eA*e[5mC]*dT*d[5mC]*dA*dT*dA*d[5mC]*d[5mC]*dT*d[5mC]*dG*e[5mC]*eA*eA*e[5mC]*e[5mC]) [compound 328412] | 1.2
12 | 328658 (eA*eG*eA*eA*eT*dG*dA*dG*dT*dT*dG*dA*d[5mC]*dA*dT*eA*e[5mC]*e[5mC]*eA*eA; antisense) [compound 328658] | 1.2
13 | 328693 (eT*eT*eT*eG*eA*dT*dT*dT*dT*dA*dA*dT*dT*d[5mC]*d[5mC]*eA*eA*eA*e[5mC]*eT; antisense) [compound 328693] | 1.0
14 | 328430 (antisense e[5mC]*e[5mC]*eG*eG*e[5mC]*dT*dA*dT*dT*dG*dA*dG*dT*dT*dA*eT*eG*eT*eA*e[5mC]) [compound 328430] | 1.3

same assay, conditions: T47D cells, 200 nM, 48 hours, relative to untreated control

Row | Substance | Fold Increase over UTC (caspase activity)
15 | 328692 (eT*eT*eG*eT*eA*dT*dG*dG*dA*d[5mC]*dA*dT*dT*dT*dA*eA*eA*eT*e[5mC]*eA; antisense) [compound 328692] | 1.2
16 | 328643 (e[5mC]*eA*eT*eG*eA*dA*dG*dA*dA*dA*dG*dA*d[5mC]*dT*dG*eT*eA*eG*e[5mC]*e[5mC]; antisense) [compound 328643] | 0.9
17 | 328371 (eT*e[5mC]*e[5mC]*eA*eT*dA*dG*d[5mC]*dT*dT*dA*dG*d[5mC]*dA*dG*eG*eT*e[5mC]*e[5mC]*eA; antisense) [compound 328371] | 1.2

same assay, conditions: caspase assay, 200 nM; conclusion from Tables 9-12

Row | Substance | apoptosis in T47D cells
18 | GCCTCCTTCATATATTCTCA (antisense; same sequence listed as MOE 5-10-5 gapmer and as uniform MOE, further chemistry not given here) [ISIS 328690] | prevent or have a protective effect from apoptosis
19 | ISIS 328371: 5-10-5 2′-MOE gapmer PS; targets mir-1d pri-miRNA (eT*e[5mC]*e[5mC]*eA*eT*dA*dG*d[5mC]*dT*dT*dA*dG*d[5mC]*dA*dG*eG*eT*e[5mC]*e[5mC]*eA) | induce apoptosis
20 | TGCTGACTGCTCGCCCTTGC (antisense; same sequence listed as MOE 5-10-5 gapmer and as uniform MOE, further chemistry not given here) [ISIS 328641] | induce apoptosis
21 | SEQ ID NO 498: gapmer of Tables 9-12 having this SEQ ID NO (antisense eG*eG*e[5mC]*eA*e[5mC]*dT*dT*d[5mC]*dA*dT*dT*dG*d[5mC]*dT*dG*e[5mC]*eT*eG*e[5mC]*e[5mC]) | induce apoptosis
22 | TACAACGGCATTGTCCTGAA (antisense; same sequence listed as MOE 5-10-5 gapmer and as uniform MOE, further chemistry not given here) [ISIS 328655] | prevent or have a protective effect from apoptosis
23 | SEQ ID NO 519: gapmer of Tables 9-12 having this SEQ ID NO (antisense eG*eG*eG*e[5mC]*e[5mC]*dT*dA*dT*d[5mC]*d[5mC]*dA*dA*dA*dG*dT*eG*eA*e[5mC]*eA*eG) | induce apoptosis
24 | CAAACGGTAAGATTTGCAGA (antisense; same sequence listed as MOE 5-10-5 gapmer and as uniform MOE, further chemistry not given here) [ISIS 328694] | prevent or have a protective effect from apoptosis
25 | TGCTCAGCCAGCCCCATTCT (antisense; same sequence listed as MOE 5-10-5 gapmer and as uniform MOE, further chemistry not given here) [ISIS 328645] | induce apoptosis
26 | SEQ ID NO 488: gapmer of Tables 9-12 having this SEQ ID NO (antisense e[5mC]*eT*eG*eA*e[5mC]*dT*dG*dA*dG*dA*d[5mC]*dT*dG*dT*dT*e[5mC]*eA*e[5mC]*eA*eG) | induce apoptosis
27 | SEQ ID NO 510: gapmer of Tables 9-12 having this SEQ ID NO (antisense eG*e[5mC]*e[5mC]*e[5mC]*eT*d[5mC]*dG*dA*d[5mC]*dG*dA*dA*dA*dA*d[5mC]*e[5mC]*eG*eA*e[5mC]*eT) | prevent or have a protective effect from apoptosis
28 | GTGTTCAGAAACCCAGGCCC (antisense; same sequence listed as MOE 5-10-5 gapmer and as uniform MOE, further chemistry not given here) [ISIS 328653] | induce apoptosis
29 | AGAATGAGTTGACATACCAA (antisense; same sequence listed as MOE 5-10-5 gapmer and as uniform MOE, further chemistry not given here) [ISIS 328658] | induce apoptosis
30 | SEQ ID NO 541: gapmer of Tables 9-12 having this SEQ ID NO (eG*eA*eG*e[5mC]*eA*dT*dG*d[5mC]*dA*dA*d[5mC]*dA*d[5mC]*dT*d[5mC]*eT*eG*eT*eG*e[5mC]) | prevent or have a protective effect from apoptosis
31 | SEQ ID NO 543: gapmer of Tables 9-12 having this SEQ ID NO (e[5mC]*eG*e[5mC]*eA*eT*d[5mC]*dT*dT*dG*dA*d[5mC]*dT*dG*dT*dA*eG*e[5mC]*eA*eT*eG) | prevent or have a protective effect from apoptosis
32 | SEQ ID NO 539: gapmer of Tables 9-12 having this SEQ ID NO (e[5mC]*e[5mC]*eG*eG*e[5mC]*dT*dA*dT*dT*dG*dA*dG*dT*dT*dA*eT*eG*eT*eA*e[5mC]) | induce apoptosis
33 | GGATTTAAACGGTAAACATC (antisense; same sequence listed as MOE 5-10-5 gapmer and as uniform MOE, further chemistry not given here) [ISIS 328695] | prevent or have a protective effect from apoptosis
34 | SEQ ID NO 520: gapmer of Tables 9-12 having this SEQ ID NO (antisense eT*eA*e[5mC]*e[5mC]*eT*d[5mC]*dT*dG*d[5mC]*dA*dG*dT*dA*dT*dT*e[5mC]*eT*eA*e[5mC]*eA) | prevent or have a protective effect from apoptosis
35 | CTCTAGCTCCCTCACCAGTG (antisense; same sequence listed as MOE 5-10-5 gapmer and as uniform MOE, further chemistry not given here) [ISIS 328696] | induce apoptosis
36 | GACAAGGTGGGAGCGAGTGG (antisense; same sequence listed as MOE 5-10-5 gapmer and as uniform MOE, further chemistry not given here) [ISIS 328644] | prevent or have a protective effect from apoptosis
37 | SEQ ID NO 502: gapmer of Tables 9-12 having this SEQ ID NO (antisense eG*e[5mC]*eT*eG*eG*d[5mC]*d[5mC]*dT*dG*dA*dT*dA*dG*d[5mC]*d[5mC]*e[5mC]*eT*eT*e[5mC]*eT) | induce apoptosis
